Laboratory results from patent publication US20140274883A1, “NOVEL ANTIVIRAL COMPOUNDS FROM MARINE EXTRACTS” (priority 2008, published 2014).

Test system: influenza A/Wyoming/03/2003 (H3N2)
Assay: Plaque reduction assay in MDCK cell monolayers
Format: cell-based, influenza virus
Settings: 5 μg/mL drug control, 72 h

NC(=O)c1ncn([C@@H]2O[C@H](CO)[C@@H](O)[C@H]2O)n1 [Ribavirin, ribavirin]
plaque formation: completely inhibits the formation of plaques
